Columns and labels:
[1] = molecular target: T1, AKR1C2 (Homo sapiens, UniProt P52895); test: Inhibition of NADP+ dependent oxidation of S-tetralol catalyzed by AKR1C2; format: biochemical; details: selectivity for AKR1C3; high value = high selectivity
T1 sequence (P52895 1-323): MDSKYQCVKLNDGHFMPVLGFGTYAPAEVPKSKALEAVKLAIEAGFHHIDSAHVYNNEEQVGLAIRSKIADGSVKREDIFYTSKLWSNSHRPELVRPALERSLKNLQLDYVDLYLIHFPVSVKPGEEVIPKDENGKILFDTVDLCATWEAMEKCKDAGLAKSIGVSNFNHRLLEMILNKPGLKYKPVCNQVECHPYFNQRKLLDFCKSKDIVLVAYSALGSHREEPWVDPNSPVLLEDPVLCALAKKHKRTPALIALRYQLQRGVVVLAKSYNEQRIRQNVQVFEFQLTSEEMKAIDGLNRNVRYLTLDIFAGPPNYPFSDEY

[2] = test system: AKR1C3 mediated production of testosterone in LNCaP-AKR1C3 cells; test: LNCaP-AKR1C3 mediated formation of testosterone from [14C]-Δ4-AD; format: cell-based, human; details: 10 μM inhibitor, 0.1 μM [14C]-Δ4-AD, 48 h, relative to control
[3] = molecular target: T2, AKR1C3 (Homo sapiens, UniProt P42330); test: Inhibition of NADP+ dependent oxidation of S-tetralol catalyzed by AKR1C3; format: biochemical
T2 sequence (P42330 1-323): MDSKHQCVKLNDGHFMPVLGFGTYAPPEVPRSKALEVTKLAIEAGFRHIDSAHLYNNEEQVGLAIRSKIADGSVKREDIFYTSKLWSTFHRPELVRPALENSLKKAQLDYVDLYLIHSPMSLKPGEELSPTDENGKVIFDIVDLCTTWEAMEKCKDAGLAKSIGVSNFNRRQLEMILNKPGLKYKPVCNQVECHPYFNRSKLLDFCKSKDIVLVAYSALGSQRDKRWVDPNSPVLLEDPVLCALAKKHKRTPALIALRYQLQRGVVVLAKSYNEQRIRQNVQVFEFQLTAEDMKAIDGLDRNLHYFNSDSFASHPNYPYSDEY

SMILES	Ratio IC50 1C2:1C3 [1]	IC50 [3]	further results
O=C(O)c1ccc(Nc2ccc(Br)cc2)cc1 [Compound 5l]	>25	–	–
CC(=O)c1ccc(Nc2cccc(C(=O)O)c2)c(C(=O)O)c1 [Compound 4w]	–	–	inhibition of testosterone production in LNCaP-AKR1C3 cells [2]: Almost identical results
O=C(O)c1cccc(Nc2cccc(C(=O)O)c2)c1 [Compound 4l]	>28.0	–	–
O=C(O)c1cccc(Nc2ccc([N+](=O)[O-])cc2)c1 [Compound 4m]	–	33 nM	–
CC(C)(C)c1ccc(Nc2ccccc2C(=O)O)cc1 [Compound 1o]	–	38 nM	–
O=C(O)c1ccc(Nc2cccc([N+](=O)[O-])c2)cc1 [Compound 5d, 4-((3-nitrophenyl)amino)benzoic acid]	>24	–	–
